# Results as given in patent publication US8084479B2, “Thiazole compounds and methods of use” (Amgen Inc., priority 2006, dated 2011).
# Molecular target: PKBα (Homo sapiens, UniProt P31749)
# Experiment: PKB kinase assay (P33-labeled ATP, peptide substrate, filter plate)
# Assay type: biochemical
# Conditions: PKBα enzyme (full length or kinase domain with pleckstrin domain deleted)
# Excerpt: The kinase assay for evaluating PKB activity comprises active PKB enzymes, a PKB specific substrate, and P^33-labeled ATP. […] The phosphorylated substrate was captured by a phosphocellulose membrane filter plate (MLLIPORE) and measured by a Wallac Microbeta liquid scintillation counter (Perkin Elmer).
# Chain of PKBα (P31749 118-480 limits assumed): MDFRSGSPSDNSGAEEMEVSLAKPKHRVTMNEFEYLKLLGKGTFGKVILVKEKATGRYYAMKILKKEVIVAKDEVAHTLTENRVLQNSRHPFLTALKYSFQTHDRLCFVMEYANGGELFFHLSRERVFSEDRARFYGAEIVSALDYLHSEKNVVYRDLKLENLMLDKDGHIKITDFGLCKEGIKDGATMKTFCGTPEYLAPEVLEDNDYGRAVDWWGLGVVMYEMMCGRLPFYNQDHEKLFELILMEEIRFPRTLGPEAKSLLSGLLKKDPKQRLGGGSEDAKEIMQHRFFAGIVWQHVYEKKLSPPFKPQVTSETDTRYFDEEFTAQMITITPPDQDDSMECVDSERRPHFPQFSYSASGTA
row,Compound,IC50 [nM]
1,"N[C@H](CNc1ncc(-c2ccc3cnccc3c2)s1)Cc1c[nH]c2ccccc12 [Example 5, N—((S)-2-amino-3-(1H-indol-3-yl)propyl)-5-(isoquinolin-6-yl)thiazol-2-amine]",50 to 1000
2,"Cn1c(=O)[nH]c2ccc(-c3cnc(NC[C@@H](N)Cc4ccc(C(F)(F)F)c(F)c4)s3)cc21 [Example 184, 6-(2-((S)-2-amino-3-(3-fluoro-4-(trifluoromethyl)phenyl)propylamino)thiazol-5-yl)-1-methyl-1H-benzo[d]imidazol-2(3H)-one]",< 50
3,"C[C@@H](c1ccc(C(F)(F)F)cc1)[C@H](N)CNc1ncc(-c2ccc3[nH]c(=O)oc3c2)s1 [Example 109, 6-(2-((2S,3S)-2-Amino-3-(4-(trifluoromethyl)phenyl)butylamino)-thiazol-5-yl)benzo[d]oxazol-2(3H)-one]",< 50
4,"N[C@H](CNc1nc(C2CCCO2)c(-c2ccc3cnccc3c2)s1)Cc1ccc(Cl)cc1 (stereo partly drawn) [Example 196, N—((S)-2-amino-3-(4-chlorophenyl)propyl)-5-(isoquinolin-6-yl)-4-(tetrahydrofuran-2-yl)thiazol-2-amine]",50 to 1000
5,"COc1cc(C[C@H](N)CNc2ncc(-c3ccc4cnccc4c3)s2)ccc1C(F)(F)F [Example 205, N—((S)-2-amino-3-(3-methoxy-4-(trifluoromethyl)phenyl)propyl)-5-(isoquinolin-6-yl)thiazol-2-amine]",< 50
6,"N[C@H](CNc1ncc(-c2ccc3cn[nH]c(=O)c3c2)s1)Cc1ccc(C(F)(F)F)cc1 [Example 252, 7-(2-((S)-2-amino-3-(4-(trifluoromethyl)phenyl)propylamino)thiazol-5-yl)phthalazin-1 (211)-one]",1000 to 10000
7,"C[C@@H](c1ccc(C(F)(F)F)cc1)[C@H](N)CNc1ncc(-c2cc(F)c3c(c2)CC(=O)N3)s1 [Example 222, 5-(2-((2S,3S)-2-amino-3-(4-(trifluoromethyl)phenyl)butylamino)thiazol-5-yl)-7-fluoroindolin-2-one]",50 to 1000
8,COCOC(c1ccc(C(F)(F)F)cc1)C(N)CNc1ncc(-c2ccc3c(c2)CC(=O)N3)s1 (stereo not drawn) [Example 244],1000 to 10000
9,"CNc1cc2cc(-c3cnc(NC[C@@H](N)Cc4ccc(C(F)(F)F)cc4)s3)ccc2cn1 [Example 138, 6-(2-((S)-2-amino-3-(4-(trifluoromethyl)phenyl)propylamino)thiazol-5-yl)-N-methylisoquinolin-3-amine]",< 50
10,"N[C@H](CNc1nc(-c2ccccc2F)c(-c2ccc3c(c2)CC(=O)N3)s1)Cc1ccc(C(F)(F)F)cc1 [Example 107, 5-(2-((S)-2-Amino-3-(4-(trifluoromethyl)phenyl)-propylamino)-4-(2-fluorophenyl)thiazol-5-yl)indolin-2-one]",1000 to 10000
11,"N[C@H](CNc1ncc(-c2ccc3c(c2)CC(=O)N3)s1)Cc1ccc(C(F)(F)F)c(F)c1 [Example 185, 5-(2-((S)-2-amino-3-(3-fluoro-4-(trifluoromethyl)phenyl)propylamino)thiazol-5-yl)indolin-2-one]",< 50
12,"CNc1cc2cc(-c3cnc(NC[C@@H](N)Cc4ccc(Cl)cc4)s3)ccc2cn1 [Example 139, 6-(2-((S)-2-amino-3-(4-chlorophenyl)propylamino)thiazol-5-yl)-N-methylisoquinolin-3-amine]",< 50
13,"Cc1n[nH]c2ccc(-c3cnc(NC[C@@H](N)Cc4ccccc4)s3)cc12 [Example 1, N—((S)-2-amino-3-phenylpropyl)-5-(3-methyl-1H-indazol-5-yl)thiazol-2-amine]",50 to 1000
14,"C[C@@H](c1ccc(C(F)(F)F)cc1)[C@H](N)CNc1ncc(-c2ccc3c(c2F)CC(=O)N3)s1 [Example 225, 5-(2-((2S,3S)-2-amino-3-(4-(trifluoromethyl)phenyl)butylamino)thiazol-5-yl)-4-fluoroindolin-2-one]",< 50
15,"COCC#Cc1nc(NC[C@@H](N)Cc2ccc(C(F)(F)F)cc2)sc1-c1ccc2cnccc2c1 [Example 146, N—((S)-2-amino-3-(4-(trifluoromethyl)phenyl)propyl)-5-(isoquinolin-6-yl)-4-(3-methoxyprop-1-ynyl)thiazol-2-amine]",50 to 1000
16,"N[C@H](CNc1ncc(-c2ccc3[nH]c(=O)oc3c2)s1)[C@@H](CO)c1ccc(C(F)(F)F)cc1 [Example 160, 6-(2-((2S,3S)-2-amino-4-hydroxy-3-(4-(trifluoromethyl)phenyl)butylamino)thiazol-5-yl)benzo[d]oxazol-2(3H)-one]",< 50
17,"N[C@H](CNc1nc(Br)c(-c2nc3ccncc3s2)s1)Cc1ccc(C(F)(F)F)cc1 [Example 111, N—((S)-2-Amino-3-(4-(trifluoromethyl)phenyl)propyl)-4-bromo-5-(thiazolo[5,4-c]pyridin-2-yl)thiazol-2-amine]",50 to 1000
18,"N[C@H](CNc1ncc(-c2nc3ccncc3s2)s1)Cc1ccc(C(F)(F)F)cc1 [Example 32, N—((S)-2-amino-3-(4-(trifluoromethyl)phenyl)propyl)-5-(thiazolo[5,4-c]pyridin-2-yl)thiazol-2-amine]",< 50

row,Compound,IC50 [nM]
1,"N[C@H](CNc1ncc(-c2ccc3[nH]ncc3c2)s1)Cc1ccc(C(F)(F)F)c(F)c1 [Example 186, N—((S)-2-amino-3-(3-fluoro-4-(trifluoromethyl)phenyl)propyl)-5-(1H-indazol-5-yl)thiazol-2-amine]",< 50
2,"N#Cc1ccc(-c2cnc(NC[C@@H](N)Cc3ccc(C(F)(F)F)cc3)s2)cc1F [Example 166, 4-(2-((S)-2-amino-3-(4-(trifluoromethyl)phenyl)propylamino)thiazol-5-yl)-2-fluorobenzonitrile]",50 to 1000
3,"N[C@H](CNc1nc(C#CC2=CCCC2)c(-c2ccc3cnccc3c2)s1)Cc1ccc(C(F)(F)F)cc1 [Example 147, N—((S)-2-amino-3-(4-(trifluoromethyl)phenyl)propyl)-4-(2-cyclopentenylethynyl)-5-(isoquinolin-6-yl)thiazol-2-amine]",1000 to 10000
4,"COC(=O)c1nc(NC[C@@H](N)Cc2ccc(C(F)(F)F)cc2)sc1-c1ccc2cnccc2c1 [Example 117, Methyl 2-((S)-2-amino-3-(4-(trifluoromethyl)phenyl)-propylamino)-5-(isoquinolin-6-yl)thiazole-4-carboxylate]",< 50
5,"N[C@H](CNc1ncc(-c2ccc3[nH]c(=O)oc3c2)s1)Cc1ccc(F)c(F)c1 [Example 127, 6-(2-((S)-2-Amino-3-(3,4-difluorophenyl)propylamino)thiazol-5-yl)benzo[d]oxazol-2(3H)-one]",50 to 1000
6,"NC(CNc1ncc(-c2ccc3c(c2)CC(=O)N3)s1)Cc1ccc(OC(F)(F)F)cc1 (stereo not drawn) [Example 188, 5-(2-(-2-amino-3-(4-(trifluoromethoxy)phenyl)propylamino)thiazol-5-yl)indolin-2-one]",< 50
7,"COCc1nc(N(C[C@@H](N)Cc2ccc(Cl)cc2)C(C)=O)sc1-c1nc2ccncc2s1 [Example 25, N—((S)-2-amino-3-(4-chlorophenyl)propyl)-N-(4-(methoxymethyl)-5-(thiazolo[5,4-c]pyridin-2-yl)thiazol-2-yl)acetamide]",50 to 1000
8,"N[C@H](CNc1ncc(-c2ccc3c(c2)CC(=O)N3)s1)Cc1cccc(C(F)(F)F)c1 [Example 44, 5-(2-((S)-2-amino-3-(3-(trifluoromethyl)phenyl)propylamino)thiazol-5-yl)indolin-2-one]",50 to 1000
9,"N[C@H](CNc1nc(CO)c(-c2ccc3cnccc3c2)s1)Cc1ccc(C(F)(F)F)cc1 [Example 10, (2-((S)-2-amino-3-(4-(trifluoromethyl)phenyl)propylamino)-5-(isoquinolin-6-yl)thiazol-4-yl)methanol]",< 50
10,"N[C@H](CNc1ncc(-c2ccc3cnccc3c2)s1)Cc1ccc(Cl)c(Cl)c1 [Example 132, N—((S)-2-Amino-3-(3,4-dichlorophenyl)propyl)-5-(isoquinolin-6-yl)thiazol-2-amine]",< 50
11,"Cn1c(=O)[nH]c2ccc(-c3cnc(NC[C@@H](N)Cc4cc(F)cc(F)c4)s3)cc21 [Example 162, 6-(2-((S)-2-amino-3-(3,5-difluorophenyl)propylamino)thiazol-5-yl)-1-methyl-1H-benzo[d]imidazol-2(3H)one]",1000 to 10000
12,"N[C@H](CNc1ncc(-c2ccc3c(c2)CC(=O)N3)s1)Cc1cc(F)cc(F)c1 [Example 163, 5-(2-((S)-2-amino-3-(3,5-difluorophenyl)propylamino)thiazol-5-yl)indolin-2-one]",1000 to 10000
13,NC(CNc1nc(Cl)c(-c2ccc3cnccc3c2)s1)Cc1ccc(C(F)(F)F)cc1 (stereo not drawn) [Example 165],50 to 1000
14,"N[C@H](CNc1ncc(-c2cc3ccncc3s2)s1)Cc1ccc(C(F)(F)F)cc1 [Example 108, N—((S)-2-amino-3-(4-(trifluoromethyl)phenyl)propyl)-5-(thieno[2,3-c]pyridin-2-yl)thiazol-2-amine]",< 50
15,"CC(=O)N[C@H](CNc1ncc(-c2ccc3c(c2)CC(=O)N3)s1)Cc1ccc(C(F)(F)F)cc1 [Example 128, N—((S)-1-(5-(2-Oxoindolin-5-yl)thiazol-2-ylamino)-3-(4-(trifluoro-methyl)phenyl)propan-2-yl)acetamide]",1000 to 10000
16,"Cn1c(=O)[nH]c2ccc(-c3cnc(NC[C@@H](N)Cc4cccc(C(F)(F)F)c4)s3)cc21 [Example 82, 6-(2-((S)-2-Amino-3-(3-(trifluoromethyl)phenyl)-propylamino)thiazol-5-yl)-1-methyl-1H-benzo[d]imidazol-2(3H)-one]",50 to 1000
17,"NC(CNc1ncc(-c2ccc3c(c2)CC(=O)N3)s1)Cc1ccc(O)c(F)c1 (stereo not drawn) [Example 217, 5-(2-(2-Amino-3-(3-fluoro-4-hydroxyphenyl)propylamino)thiazol-5-yl)indolin-2-one]",50 to 1000
18,"NC(=O)c1nc(NC[C@@H](N)Cc2ccc(C(F)(F)F)cc2)sc1-c1ccc2cnccc2c1 [Example 121, 2-((S)-2-amino-3-(4-(trifluoromethyl)phenyl)propylamino)-5-(isoquinolin-6-yl)thiazole-4-carboxamide]",1000 to 10000
